Earlier results, collected in patent EP2231118B2, “SUSPENSION COMPRISING NON-MICRONIZED EZETIMIBE MICRO-PARTICLES” (KRKA, tovarna zdravil, d.d., Novo mesto, priority 2007, dated 2009).

O=C1[C@H](CC[C@H](O)c2ccc(F)cc2)[C@@H](c2ccc(O)cc2)N1c1ccc(F)cc1 [Ezetimibe, 1-(4-fluorophenyl)-3(R)-[3-(4-fluorophenyl)-3(S)-hydroxypropyl]-4(S)-(4-hydroxyphenyl)-2-azetidinone]
solubility in water: practically insoluble
